Measurements reported in patent publication US20260125382A1, “COMPOUNDS FOR INHIBITING OR DEGRADING CDK2 AND/OR CDK9 AND MEDICINAL USE THEREOF” (KOREA RESEARCH INSTITUTE OF CHEMICAL TECHNOLOGY, priority 2022, published 2026).

What was measured:
CDK9 = target: T1, CDK9 (Homo sapiens, UniProt P50750); experiment: CDK protein degradation activity (Western blotting), CDK9; format: cell-based; settings: MDA-MB-231 cells, 16 hours, Western blot
T1 construct: endogenous in cells; host or cells: MDA-MB-231
Outline: (§1)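 MDA-MB-231 cells treated 16 h with compound at 100 nM, 1 μM or 10 μM, with DMSO as control. Lysates run on SDS-PAGE and immunoblotted for CDK2, CDK9 and tubulin; band levels quantified by densitometry.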

CDK2 = target: T2, CDK2 (Homo sapiens, UniProt P24941); experiment: CDK protein degradation activity (Western blotting), CDK2; format: cell-based; settings: MDA-MB-231 cells, 16 hours, Western blot
T2 construct: endogenous in cells; host or cells: MDA-MB-231
Outline: as §1

T1 sequence (P50750 whole entry): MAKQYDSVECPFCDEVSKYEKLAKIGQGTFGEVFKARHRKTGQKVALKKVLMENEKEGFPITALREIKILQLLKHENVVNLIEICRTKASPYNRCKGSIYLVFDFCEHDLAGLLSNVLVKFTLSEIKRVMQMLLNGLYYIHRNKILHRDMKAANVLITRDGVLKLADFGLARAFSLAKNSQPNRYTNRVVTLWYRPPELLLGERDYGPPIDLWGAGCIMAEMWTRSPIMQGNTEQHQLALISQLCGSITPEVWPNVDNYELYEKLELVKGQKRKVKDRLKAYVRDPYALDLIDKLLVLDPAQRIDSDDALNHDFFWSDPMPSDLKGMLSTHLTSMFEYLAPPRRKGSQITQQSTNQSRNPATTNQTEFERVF

Row | Enzyme degradation CDK9 (% remaining) @ 0.1 μM (CDK9) | Enzyme degradation CDK9 (% remaining) @ 1 μM (CDK9) | Enzyme degradation CDK9 (% remaining) @ 10 μM (CDK9) | Enzyme degradation CDK2 (% remaining) @ 0.1 μM (CDK2) | Enzyme degradation CDK2 (% remaining) @ 1 μM (CDK2) | Enzyme degradation CDK2 (% remaining) @ 10 μM (CDK2) | Structure (SMILES)
1 | 20% | 10% | 10% | 60% | 50% | 50% | O=C1CC[C@H](n2nnc3ccc(N4CCC(N5CCN(c6ccc(Nc7ncnc8c7ncn8[C@H]7C[C@@H](NC(=O)Cc8ccccc8)C7)cc6)CC5)CC4)cc3c2=O)C(=O)N1 [Compound 334, N-((1s,3s)-3-(6-((4-(4-(1-(3-(2,6-dioxopiperidin-3-yl)-4-oxo-3,4-dihydrobenzo[d][1,2,3]triazin-6-yl)piperidin-4-yl)piperazin-1-yl)phenyl)amino)-9H-purin-9-yl)cyclobutyl)-2-phenylacetamide]
2 | 20% | 10% | 10% | 30% | 20% | 20% | O=C1CC[C@H](N2C(=O)c3ccc(N4CCC(CN5CCC(CCNc6ncnc7c6ncn7C6CC(NC(=O)Cc7ccccc7)C6)CC5)CC4)cc3C2=O)C(=O)N1 (stereo partly drawn) [Compound 423, N-((1s,3s)-3-(6-((2-(1-((1-(2-(2,6-dioxopiperidin-3-yl)-1,3-dioxoisoindolin-5-yl)piperidin-4-yl)methyl)piperidin-4-yl)ethyl)amino)-9H-purin-9-yl)cyclobutyl)-2-phenylacetamide]
3 | 40% | 30% | 30% | 40% | 60% | 70% | COc1ccc(C(=O)N2CCC3(CC2)CC(N2CCC(c4ccc(Nc5ncnc6c5ncn6[C@H]5C[C@@H](NC(=O)Cc6ccccc6)C5)cc4)CC2)C3)cc1N1CCC(=O)NC1=O [Compound 286, N-((1s,3s)-3-(6-((4-(1-(7-(3-(2,4-dioxotetrahydropyrimidin-1(2H)-yl)-4-methoxybenzoyl)-7-azaspiro[3.5]nonan-2-yl)piperidin-4-yl)phenyl)amino)-9H-purin-9-yl)cyclobutyl)-2-phenylacetamide]
4 | 60% | 10% | 0% | 40% | 30% | 30% | O=C1CC[C@H](N2C(=O)c3ccc(OCC(=O)N4CCC(CCCN5CCN(c6ccc(Nc7ncnc8c7ncn8[C@H]7C[C@@H](NC(=O)Cc8ccccc8)C7)cc6)CC5)CC4)cc3C2=O)C(=O)N1 [Compound 256, N-((1s,3s)-3-(6-((4-(4-(3-(1-(2-((2-(2,6-dioxopiperidin-3-yl)-1,3-dioxoisoindolin-5-yl)oxy)acetyl)piperidin-4-yl)propyl)piperazin-1-yl)phenyl)amino)-9H-purin-9-yl)cyclobutyl)-2-phenylacetamide]
5 | 70% | 10% | 10% | 100% | 50% | 50% | O=C1CC[C@H](N2C(=O)c3ccc(N4CC(C(=O)N5CCN(C6CCN(c7ccc(Nc8ncnc9c8ncn9C8CC(NC(=O)Cc9ccccc9)C8)cc7)CC6)CC5)C4)cc3C2=O)C(=O)N1 (stereo partly drawn) [Compound 364, N-((1s,3s)-3-(6-((4-(4-(4-(1-(2-(2,6-dioxopiperidin-3-yl)-1,3-dioxoisoindolin-5-yl)azetidin-3-carbonyl)piperazin-1-yl)piperidin-1-yl)phenyl)amino)-9H-purin-9-yl)cyclobutyl)-2-phenylacetamide]
6 | 10/10/10% | 10/10/10% | 10/10/10% | 50% | 50% | 60% | O=C1CC[C@H](N2C(=O)c3ccc(N4CCC(C(=O)N5CCC(CCCN6CCN(c7ccc(Nc8ncnc9c8ncn9C8CC(NC(=O)Cc9ccccc9)C8)cc7)CC6)CC5)CC4)cc3C2=O)C(=O)N1 (stereo partly drawn) [Compound 354, N-((1s,3s)-3-(6-((4-(4-(3-(1-(1-(2-(2,6-dioxopiperidin-3-yl)-1,3-dioxoisoindolin-5-yl)piperidin-4-carbonyl)piperidin-4-yl)propyl)piperazin-1-yl)phenyl)amino)-9H-purin-9-yl)cyclobutyl)-2-phenylacetamide]

Continued, compound first:

Row | Structure (SMILES) | Enzyme degradation CDK9 (% remaining) @ 0.1 μM (CDK9) | Enzyme degradation CDK9 (% remaining) @ 1 μM (CDK9) | Enzyme degradation CDK9 (% remaining) @ 10 μM (CDK9) | Enzyme degradation CDK2 (% remaining) @ 0.1 μM (CDK2) | Enzyme degradation CDK2 (% remaining) @ 1 μM (CDK2) | Enzyme degradation CDK2 (% remaining) @ 10 μM (CDK2)
7 | Cc1cccc(C(=O)N[C@H]2C[C@@H](n3cnc4c(NC5CCN(CCOC6CCN(c7ccc8c(c7)C(=O)N([C@H]7CCC(=O)NC7=O)C8=O)CC6)CC5)ncnc43)C2)n1 [Compound 47, N-((1s,3s)-3-(6-((1-(2-((1-(2-(2,6-dioxopiperidin-3-yl)-1,3-dioxoisoindolin-5-yl)piperidin-4-yl)oxy)ethyl)piperidin-4-yl)amino)-9H-purin-9-yl)cyclobutyl)-6-methylpicolinamide] | 40% | 0% | 0% | 100/100/100% | 100/100/100% | 100/100/100%
8 | Cc1cccc(C(=O)N[C@H]2C[C@@H](n3cnc4c(NC5CCN(CC6CCN(C(=O)CNc7ccc8c(c7)C(=O)N([C@H]7CCC(=O)NC7=O)C8=O)CC6)CC5)ncnc43)C2)n1 [Compound 25, N-((1s,3s)-3-(6-((1-((1-((2-(2,6-dioxopiperidin-3-yl)-1,3-dioxoisoindolin-5-yl)glycyl)piperidin-4-yl)methyl)piperidin-4-yl)amino)-9H-purin-9-yl)cyclobutyl)-6-methylpicolinamide] | 0/0/0% | 0/0/0% | 0/0/0% | 20% | 20% | 30%
9 | Cc1cccc(C(=O)NC2CC(n3cnc4c(Nc5ccc(N6CCN(C7CC8(CCN(C(=O)COc9ccc([C@@H]%10CCC(=O)NC%10=O)cc9)CC8)C7)CC6)cc5)ncnc43)C2)n1 (stereo partly drawn) [Compound 435, N-((1s,3s)-3-(6-((4-(4-(7-(2-(4-(2,6-dioxopiperidin-3-yl)phenoxy)acetyl)-7-azaspiro[3.5]nonan-2-yl)piperazin-1-yl)phenyl)amino)-9H-purin-9-yl)cyclobutyl)-6-methylpicolinamide] | 10/10/10% | 10/10/10% | 10/10/10% | 40/40/40% | 40/40/40% | 40/40/40%
10 | Cc1cccc(C(=O)N[C@H]2C[C@@H](n3cnc4c(NCc5cccc(N6CCN(C(=O)CNc7cccc8c7C(=O)N(C7CCC(=O)NC7=O)C8=O)CC6)c5)ncnc43)C2)n1 (stereo partly drawn) [Compound 130, N-((1s,3s)-3-(6-((3-(4-((2-(2,6-dioxopiperidin-3-yl)-1,3-dioxoisoindolin-4-yl)glycyl)piperazin-1-yl)benzyl)amino)-9H-purin-9-yl)cyclobutyl)-6-methylpicolinamide] | 100% | 40% | 20% | 60% | 40% | 10%
11 | Cc1cccc(C(=O)N[C@H]2C[C@@H](n3cnc4c(NC5CCN(CCOC6CCN(C(=O)COc7ccc8c(c7)C(=O)N([C@H]7CCC(=O)NC7=O)C8=O)CC6)CC5)ncnc43)C2)n1 [Compound 43, N-((1s,3s)-3-(6-((1-(2-((1-(2-((2-(2,6-dioxopiperidin-3-yl)-1,3-dioxoisoindolin-5-yl)oxy)acetyl)piperidin-4-yl)oxy)ethyl)piperidin-4-yl)amino)-9H-purin-9-yl)cyclobutyl)-6-methylpicolinamide] | 50% | 0% | 0% | 90% | 60% | 70%
